Source: US20050272677A1, “Delivery of a substance to a pre-determined site” (priority 2002, published 2005)
Read-outs that look alike come from different tables or passages of the source.

How the values were obtained:
[1] = Release of quinolines from DBC gels by UV-Vis spectroscopy; assay type: physicochemical; details: into 1 mL PBS pH 7.4, initial 0.001M
From the text: Entrapment of 8-aminoquinoline and 2-hydroxyquinoline (FIG. 61) was achieved by adding a PBS (phosphate-buffered saline) pH 7.4 solution of the quinoline of interest to X mg of DBC (dibenzoyl cystine); X=2, 3.5, 5 or 10, depending on the weight percentage (wt %) of gelator desired. The sample was then heated in a closed vial until complete dissolution of DBC was observed and subsequently allowed to cool to room temperature where gelation of the sample and, thus, entrapment of the quinolines in the gel occured.
After 24 hours, percentages of 8-aminoquinoline and 2-hydroxyquinoline released from DBC gels of different weight percentages into 1mL of PBS solution at pH 7.4 in contact with the gel, were measured by UV-Vis spectroscopy and are reported in Table J. The initial quinoline concentration in the gel was 0.001M. The error on each percentage is ±4%.

[2] = pH as stimulus for gel-to-sol and sol-to-gel transitions; assay type: physicochemical
From the text: Addition of base to a gel of 1 led to a decrease in melting temperature of the gel. Above pH>4.06, gelation was no longer observed (reversible process; see FIG. 50).
Compound 15 can gelate water and undergoes a sol-to-gel transition around pH=4.93 at room temperature (for a 0.5 wt % gel).

[3] = Gelation experiment (gel formation in solvents); assay type: physicochemical
Method: To obtain a gel or to thicken the solvent, the compound is mixed with the required solvent or a mixture of solvents in an amount between 0.01 and 50 wt. %, based on the weight of the composition. Typically, the dissolution of the components will be performed by heating (in some cases it may be helpful to homogenize the components, e.g., vortex) them together at temperatures of 20° C. to 200° C., preferably 50° C. to 150° C. Cooling these hot solutions to a preferred temperature in the range of −20° C. to 100° C., preferably 4° C. to 100° C. affords the gel or thickened solvent. […] In an alternative embodiment, the gelling agent is first dissolved in a polar or apolar solvent followed by the addition of another solvent or solvent mixture, thereby causing gelation to take place.
It will be understood that the use of the present gelling agents or thickeners to prepare a gel or to thicken a composition is also encompassed by the invention. As is well-known, gelling behavior of compounds or compositions is highly unpredictable. […] Preferably, the gelling phenomenon is thermoreversible.
In a typical gelation experiment, a carefully weighed amount of the dithienylcyclopentene derivative under investigation and 1 ml of the solvent are placed in a test tube, which is sealed and then heated until the compound is dissolved. The solution is allowed to cool to room temperature. […] The gelation process could be followed by UV-vis and CD spectroscopy as depicted in FIG. 58. At low concentrations (0.35 mM), compound D is dissolved in toluene. […] Increasing the concentration to 1.8 mM causes gelation of the solvent, which is accompanied by a change of the UV-visible spectrum, together with the appearance of a strong CD signal at 323 nm (FIG. 58, panels (a) and (c)). Similar changes in the UV-vis and CD spectrum are observed upon gelation of the 1.8 mM solution of D in toluene by cooling to a temperature below the sol-gel phase transition (from here on, referred to as gel(o)). From a plot of the increase of the CD signal versus the temperature, the sol-gel phase transition temperature of gel(o) was determined to be 29° C. for a 1.8 mM solution of D in toluene.

[4] = In vivo delivery of luciferase DNA complexed with Sunfish amphiphiles; design: species or system mouse; details: for gene expression (Luciferase) after intravenous injection of complexed DNA: 24 hours, efficiency order SF-46>SF-36>SF-6>SF-30>SF-63
Method: Sunfish (SF) amphiphiles were tested and compared to DOTAP, a commercially available amphiphile (Avanti Polar Lipids). The used plasmid DNA codes for Luciferase, which is expressed upon transfection. Luciferase activity represents the efficiency of transfection. Liposomes were prepared by drying the Sunfish amphiphiles or DOTAP in glass tubes under a nitrogen flow followed by being under vacuum for one hour. The lipid film was resuspended in 20% sucrose by mixing and warming up for five minutes to 60° C. in a water bath. The liposomal suspension was then sonicated for three minutes. For lipoplexes formation, plasmid DNA (30 μg/mouse) diluted in 20% sucrose was added to the liposomes (450 nmol/mouse) under mixing. The lipoplexes were allowed to rest at room temperature for […] and were intravenously injected (150 μl) in male BALB/c mice. Organs (lungs, heart, liver, spleen and kidneys) were collected 24 hours after injection for analysis. Luciferase activity was measured in homogenates of the different organs and related to a standard curve obtained with purified recombinant Luciferase.

[5] = Gelation in the presence of surfactants and polymeric micelles; assay type: physicochemical; design: key: g = gel; i = insoluble; p = precipitate; sol = soluble
[6] = as above; assay type: physicochemical; design: key: G = gel; C = crystalline; G^a: ^a= not stable
[7] = test system: pB104 strain (MscL null E. coli); test: Growth assay of MscL mutants on agar plates with or without IPTG; assay type: cell-based; design: key: ++++: growth equal to cells expressing wild-type MscL; growth is indicated by ++++ to −; growth is indicated by ++++ to −; growth is indicated by ++++ to −; −: an absence of growth; details: pB104 with Lac-inducible plasmid
Method: The constructs of the MscL-6His mutants were constructed using standard molecular biology techniques. The mutants were tested in the pB104 strain (MscL null E. coli) by a growth assay on agar plates with or without IPTG (K. Yoshimura et al., 1999, Biophys. J. 77:1960-1972).
The first phenotype (++) grows like the single G22S mutant.

Which “percentage released from DBC gel after 24 hours” value (from here on “percentage released from DBC gel”) ([1]; DBC 0.35 wt %) does the source give for `Oc1ccc2ccccc2n1` [2-hydroxyquinoline] here?
The value was 38%.

What about the “percentage released from DBC gel” value ([1]; DBC 0.5 wt %) of the same molecule?
Its value is 37%.

What about the “percentage released from DBC gel” value ([1]; DBC 1.0 wt %) of the same molecule?
The value was 36%.

Which “percentage released from DBC gel” value ([1]; DBC 0.35 wt %) does the source give for `Nc1cccc2cccnc12` [8-aminoquinoline] here?
The value was 15%.

What about the “percentage released from DBC gel” value ([1]; DBC 0.5 wt %) of the same molecule?
The value was 12%.

And the “percentage released from DBC gel” value ([1]; DBC 1.0 wt %)?
Its value is 10%.

For `COC(=O)[C@H](CCSC)NC(=O)[C@H]1C[C@@H](C(=O)N[C@@H](CCSC)C(=O)OC)C[C@@H](C(=O)N[C@@H](CCSC)C(=O)OC)C1` [9a, CHexAmMetOMe], which “effect of sufficient amounts of base on the gel” value (shortened to “effect”) [2] is on record?
Its value is “causes dissolution of these gels”.

And the solvents gelated [3]?
The solvents gelated was “both organic solvents and water”.

With `CCCCCCCC/C=C\CCCCCCCCCc1cc[n+](CCCCCCCC/C=C\CCCCCCCC)cc1.[Cl-]` [SF-6, 1-(9′-cis-octadecenyl)-4-(10″-cis-nonadecenyl)pyridinium Chloride] as the molecule, how does the “gene expression (Luciferase) after intravenous injection of complexed DNA” value (from here on “gene expression (Luciferase)”) [4] read?
The value was “resulted in gene expression in the lungs”.

For `CCCCCCCC/C=C\CCCCCCCC[n+]1ccc(CCCCCCCCCCCCC)cc1.[Cl-]` [SF-30, 1-(9′-cis-octadecenyl)-4-tridecyl-pyridinium Chloride], which “gene expression (Luciferase)” value [4] is on record?
Its value is “resulted in gene expression in the lungs”.

With `CCCCCCCCCCCCCCCC[n+]1ccc(CCCCCCCCCCCCC)cc1.[Cl-]` [SF-36, 1-hexadecyl-4-tridecyl-pyridinium Chloride] as the molecule, how does the “gene expression (Luciferase)” value [4] read?
Its value is “resulted in gene expression in the lungs”.

With `CCCCCCCC/C=C\CCCCCCCCCc1cc[n+](CCCCCCCCCCCCCCCCCC)cc1` [SF-46, 1-stearyl-4-(10′-cis-nonadecenyl)-pyridinium Chloride] as the molecule, how does the “Luciferase activity in the lungs compared to DOTAP” value ([4]; 24 hours after i.v. injection) read?
The value was “five times higher”.

And the “gene expression (Luciferase)” value [4]?
The value was “resulted in gene expression in the lungs”.

What does the source list for `CSCC[C@H](NC(=O)[C@H]1C[C@@H](C(=O)N[C@@H](CCSC)C(=O)O)C[C@@H](C(=O)N[C@@H](CCSC)C(=O)O)C1)C(=O)O` [gelator 1, CHexAmMetOH]?
pH above which gelation was no longer observed ([2]; addition of base, reversible): 4.06; Gelation properties ([5]; Pluronic P 105, 5 mg · ml^−1): p; Gelation properties ([5]; Pluronic P 105, 5 mg · ml^−1, * pH reversible gelation): g; Gelation properties ([5]; Pluronic P 105, 5 mg · ml^−1, ** pH reversible then thermoreversible gelation): p; Gelation properties ([5]; Pluronic P 105, 100 mg · ml^−1): p; Gelation properties ([5]; Pluronic P 105, 100 mg · ml^−1, * pH reversible gelation): g; Gelation properties ([5]; Pluronic P 105, 100 mg · ml^−1, ** pH reversible then thermoreversible gelation): p; solvents gelated [3]: water and lower alcohols; Gelation properties ([6]; CTAB < CMC, * pH reversible gelation): C; Gelation properties ([6]; CTAB < CMC, ** pH reversible then thermoreversible gelation): C; Gelation properties ([6]; CTAB > CMC, * pH reversible gelation): C; Gelation properties ([6]; CTAB > CMC, ** pH reversible then thermoreversible gelation): C; Gelation properties ([6]; Lactose der. < CMC, * pH reversible gelation): G; Gelation properties ([6]; Lactose der. < CMC, ** pH reversible then thermoreversible gelation): G; Gelation properties ([6]; Lactose der. > CMC, * pH reversible gelation): G; Gelation properties ([6]; Lactose der. > CMC, ** pH reversible then thermoreversible gelation): G; Gelation properties ([6]; Nonionic (Lactose der.) < CMC): G; Gelation properties ([6]; Nonionic (Lactose der.) > CMC): G; Gelation properties ([6]; SDS < CMC, * pH reversible gelation): G; Gelation properties ([6]; SDS < CMC, ** pH reversible then thermoreversible gelation): G; Gelation properties ([6]; SDS > CMC, * pH reversible gelation): G; Gelation properties ([6]; SDS > CMC, ** pH reversible then thermoreversible gelation): G; Gelation properties ([6]; anionic (SDS) < CMC): G; Gelation properties ([6]; anionic (SDS) > CMC): G; Gelation properties ([6]; cationic (CTAB) < CMC): C; Gelation properties ([6]; cationic (CTAB) > CMC): C

Which Gelation properties ([5]; Pluronic P 105, 5 mg · ml^−1) does the source give for `O=C(NCCOCCO)[C@H](Cc1ccccc1)NC(=O)[C@H]1C[C@@H](C(=O)N[C@@H](Cc2ccccc2)C(=O)NCCOCCO)C[C@@H](C(=O)N[C@@H](Cc2ccccc2)C(=O)NCCOCCO)C1` [gelator 4, CHexAmPheNHCH2CH2OCH2CH2OH] here?
The Gelation properties was “p”.

And the Gelation properties ([5]; Pluronic P 105, 100 mg · ml^−1)?
Its Gelation properties is “p”.

And the solvents gelated [3]?
The solvents gelated was “water and lower alcohols”.

What about the Gelation properties ([6]; Nonionic (Lactose der.) < CMC) of the same molecule?
Its Gelation properties is “G”.

And the Gelation properties ([6]; Nonionic (Lactose der.) > CMC)?
Its Gelation properties is “G”.

And the Gelation properties ([6]; anionic (SDS) < CMC)?
Its Gelation properties is “G”.

And the Gelation properties ([6]; anionic (SDS) > CMC)?
The Gelation properties was “G”.

And the Gelation properties ([6]; cationic (CTAB) < CMC)?
Its Gelation properties is “G”.

And the Gelation properties ([6]; cationic (CTAB) > CMC)?
The Gelation properties was “G”.

Which “pH of sol-to-gel transition” value [2] does the source give for `CSCC[C@H](NC(=O)[C@H]1C[C@@H](C(=O)N[C@@H](CCSC)C(=O)NCCc2c[nH]cn2)C[C@@H](C(=O)N[C@@H](CCSC)C(=O)NCCc2c[nH]cn2)C1)C(=O)NCCc1c[nH]cn1` [gelator 15, CHexAmMetHista] here?
The value was about 4.93.

And the solvents gelated ([3]; listed as 15)?
Its solvents gelated is “water”.

And the solvents gelated ([3]; listed as CHex-Am-Met-Hista)?
Its solvents gelated is “water and lower alcohols”.

With CHexAmAspOMe [gelator 8] as the molecule, how does the “effect” value [2] read?
The value was “causes dissolution of these gels”.

For CHexAmMetAmCH2Pyr [gelator 6], which “pH of sol-to-gel transition” value ([2]; room temperature, 0.5 wt % in MeOH:H2O=1:1) is on record?
The value was about 4.47.

What about the solvents gelated [3] of the same molecule?
Its solvents gelated is “water:alcohol mixtures (1:1)”.

What about the state ([3]; DMSO) of the same molecule?
The state was “soluble”.

And the state ([3]; EtOH)?
The state was “soluble”.

What about the state ([3]; H2O/EtOH (1:1), weight % 1.0, 0.5, 0.25) of the same molecule?
The state was “gel”.

And the state ([3]; H2O/EtOH (2:1), weight % 0.16)?
Its state is “gel”.

What about the state ([3]; H2O/EtOH (4:1), weight % 1.0, 0.5) of the same molecule?
The state was “gel (turbid)”.

What about the state ([3]; H2O/MeOH (1:1), weight % 0.5, 0.25) of the same molecule?
Its state is “gel”.

What about the state ([3]; H2O/MeOH (4:1), weight % 1.0, 0.5) of the same molecule?
Its state is “gel (turbid)”.

And the state ([3]; H2O, weight % 0.05)?
The state was “insoluble”.

What about the state ([3]; MeOH) of the same molecule?
Its state is “soluble”.

Which “effect” value [2] does the source give for CHexAmPheGlyOH [gelator 3] here?
Its value is “causes dissolution of these gels”.

B1: R13H (protein, UniProt P0A742 1-136, looked up, variant R13H)
Large-conductance …: MSIIKEFREFAMHGNVVDLAVGVIIGAAFGKIVSSLVADIIMPPLGLLIGGIDFKQFAVTLRDAQGDIPAVVMHYGVFIQNVFDFLIVAFAIFMAIKLINKLNRKKEEPAAAPAPTKEEVLLTEIRDLLKEQNNRS
For B1, which “Growth on agar plates +IPTG” value ([7]; with IPTG) is on record?
Its value is “+++”.

What about the “Growth on agar plates −IPTG” value ([7]; without IPTG) of the same molecule?
The value was “++++”.
